Results reported in publication PMC2901852 (Chemical biology & drug design, 2009).
Where two headings read alike, the source gives them in different places.

Key:
[1] = target: Human recombinant MMP-9 (Homo sapiens, UniProt P14780); test: Inhibition of MMP-9, fluorogenic substrate hydrolysis; assay type: biochemical
[2] = target: T1, catalytic domain of human recombinant MMP-1 (Homo sapiens, UniProt P03956); test: Inhibition of MMP-1 catalytic domain, fluorogenic substrate hydrolysis; assay type: biochemical
T1 sequence (P03956 100-269 limits assumed): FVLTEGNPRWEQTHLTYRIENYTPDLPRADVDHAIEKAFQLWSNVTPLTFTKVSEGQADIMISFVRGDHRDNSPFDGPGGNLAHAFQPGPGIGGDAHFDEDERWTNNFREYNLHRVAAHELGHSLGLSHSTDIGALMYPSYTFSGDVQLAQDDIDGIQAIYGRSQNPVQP

[3] = target: catalytic domain of human recombinant MMP-3 (Homo sapiens, UniProt P08254); test: Inhibition of MMP-3 catalytic domain, fluorogenic substrate hydrolysis; assay type: biochemical
[4] = In vitro metabolism, incubation with rat liver microsomes; assay type: in vitro ADME; conditions: more metabolically stable than SB-3CT
[5] = target: T2, Human recombinant MMP-2 (Homo sapiens, UniProt P08253); test: Inhibition of MMP-2, fluorogenic substrate hydrolysis; assay type: biochemical
T2 sequence (P08253 110-660): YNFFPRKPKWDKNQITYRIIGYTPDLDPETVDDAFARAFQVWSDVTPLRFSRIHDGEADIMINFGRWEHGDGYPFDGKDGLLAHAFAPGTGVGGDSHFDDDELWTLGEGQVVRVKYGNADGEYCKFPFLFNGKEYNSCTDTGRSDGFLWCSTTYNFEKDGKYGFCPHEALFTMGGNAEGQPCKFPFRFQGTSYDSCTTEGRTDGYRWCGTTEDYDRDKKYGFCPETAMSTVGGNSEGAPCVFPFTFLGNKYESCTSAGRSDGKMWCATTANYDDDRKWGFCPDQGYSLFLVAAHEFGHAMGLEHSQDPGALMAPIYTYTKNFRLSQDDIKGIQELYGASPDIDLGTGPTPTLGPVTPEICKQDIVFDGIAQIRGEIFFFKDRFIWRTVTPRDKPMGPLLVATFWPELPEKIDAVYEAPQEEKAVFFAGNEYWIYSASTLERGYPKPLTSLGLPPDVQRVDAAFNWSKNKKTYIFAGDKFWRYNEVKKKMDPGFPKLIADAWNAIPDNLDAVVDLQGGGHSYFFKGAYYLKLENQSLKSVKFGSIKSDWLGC

[6] = target: T3, Human recombinant active MMP-7 (Homo sapiens, UniProt P09237); test: Inhibition of MMP-7, fluorogenic substrate hydrolysis; assay type: biochemical
T3 sequence (P09237 95-267): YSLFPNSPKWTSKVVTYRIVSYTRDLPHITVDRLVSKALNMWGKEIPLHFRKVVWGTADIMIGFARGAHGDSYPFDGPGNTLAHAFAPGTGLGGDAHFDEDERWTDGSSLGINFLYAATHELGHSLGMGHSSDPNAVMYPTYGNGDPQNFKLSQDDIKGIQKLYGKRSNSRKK

[7] = target: catalytic domain of human recombinant MMP-14 (MT1-MMP) (Homo sapiens, UniProt P50281); test: Inhibition of MMP-14 catalytic domain, fluorogenic substrate hydrolysis; assay type: biochemical
[8] = 15-min incubation with rat liver microsomes; cited from earlier work

Sequence of catalytic domain of human recombinant MMP-3 (P08254 100-272 limits assumed): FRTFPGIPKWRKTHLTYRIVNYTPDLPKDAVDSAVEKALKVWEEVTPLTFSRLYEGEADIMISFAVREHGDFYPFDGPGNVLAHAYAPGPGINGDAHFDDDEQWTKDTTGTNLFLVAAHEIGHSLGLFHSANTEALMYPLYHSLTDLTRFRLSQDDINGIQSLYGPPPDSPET
Sequence of Human recombinant MMP-9 (P14780 94-707): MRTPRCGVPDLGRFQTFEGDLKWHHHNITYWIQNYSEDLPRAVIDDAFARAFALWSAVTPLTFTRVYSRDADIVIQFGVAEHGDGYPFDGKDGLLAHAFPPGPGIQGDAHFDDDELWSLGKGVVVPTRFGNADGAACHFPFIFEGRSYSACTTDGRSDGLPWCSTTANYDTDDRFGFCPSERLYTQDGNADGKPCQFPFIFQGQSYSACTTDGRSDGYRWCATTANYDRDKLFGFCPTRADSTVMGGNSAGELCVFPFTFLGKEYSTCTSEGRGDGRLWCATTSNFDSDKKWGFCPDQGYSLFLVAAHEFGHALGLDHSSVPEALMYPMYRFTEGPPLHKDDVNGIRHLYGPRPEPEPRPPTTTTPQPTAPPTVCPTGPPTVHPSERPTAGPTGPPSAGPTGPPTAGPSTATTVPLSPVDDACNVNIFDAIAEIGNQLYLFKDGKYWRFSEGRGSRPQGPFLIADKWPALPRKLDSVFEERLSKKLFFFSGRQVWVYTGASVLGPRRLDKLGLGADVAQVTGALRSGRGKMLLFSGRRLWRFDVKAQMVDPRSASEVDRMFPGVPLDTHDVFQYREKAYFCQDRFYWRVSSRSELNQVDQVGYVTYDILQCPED

## C[C@H]([C@@H]1CS1)S(=O)(=O)c1ccc(Oc2ccccc2)cc1 [Compound 5d, (2S)-2-(1R-(4-Phenoxyphenylsulfonyl)ethyl)thiirane]
[1]
  Ki: 3300 ± 200 nM
[1]; read-out: 10^4 koff
  koff: 0.00072 ± 4e-05 s⁻¹
[1]; read-out: 10^–3 kon
  kon: 220 ± 10 M⁻¹ s⁻¹
[2]
  Ki: > 60000 nM
[3]; read-out: Inhibition at 60 μM
  inhibition at 60 µM: 9%
[4]
  Metabolic stability relative to SB-3CT: > 50 fold
[5]
  Ki: 390 ± 30 nM
[5]; read-out: 10^4 koff
  koff: 0.00081 ± 6e-05 s⁻¹
[5]; read-out: 10^–3 kon
  kon: 2100 ± 100 M⁻¹ s⁻¹
[6]
  Ki: > 60000 nM
[7]
  Ki: 2100 ± 200 nM
[7]; read-out: 10^4 koff
  koff: 0.00095 ± 9e-05 s⁻¹
[7]; read-out: 10^–3 kon
  kon: 460 ± 10 M⁻¹ s⁻¹

## C[C@@H]([C@H]1C[S+]1[O-])S(=O)(=O)c1ccc(Oc2ccccc2)cc1 (stereo partly drawn) [Compound 12, (2R)-2-(1S-(4-Phenoxyphenylsulfonyl)ethyl)thiirane S-oxide]
[1]; MMP-9, 60 μM
  inhibition at a fixed 60 μM inhibitor concentration: 30%
[5]; MMP-2
  Ki: 20000 nM
[7]; MMP-14, 60 μM
  inhibition at a fixed 60 μM inhibitor concentration: 0%

## C[C@@H]([C@@H]1CS1)S(=O)(=O)c1ccc(Oc2ccccc2)cc1 [Compound 5a, (2S)-2-(1S-(4-Phenoxyphenylsulfonyl)ethyl)thiirane]
[5]; MMP-2, linear competitive inhibitors
  Ki: 7200 ± 100 nM

## CC(C1CS1)S(=O)(=O)c1ccc(Oc2ccc(O)cc2)cc1 (centres unmarked) [Compound 13b]
[1]; MMP-9
  Ki: 1900 ± 700 nM
[2]; MMP-1, inhibitor concentrations up to 60 μM
  inhibition in words: Marginal to no inhibition
[3]; MMP-3, inhibitor concentrations up to 60 μM
  inhibition in words: Marginal to no inhibition
[5]; MMP-2
  Ki: 220 ± 90 nM
[6]; MMP-7, inhibitor concentrations up to 60 μM
  inhibition in words: Marginal to no inhibition
[7]; MMP-14cat
  Ki: 2100 ± 700 nM

## O=S(=O)(CC1CS1)c1ccc(Oc2ccccc2)cc1 (centres unmarked) [Compound 1, 2-(4-phenoxyphenylsulfonylmethyl)thiirane]
[8]
  compound remaining: 0.5%

## C[C@@H]([C@H]1CS1)S(=O)(=O)c1ccc(Oc2ccccc2)cc1 [Compound 5b, (2R)-2-(1S-(4-Phenoxyphenylsulfonyl)ethyl)thiirane]
[1]; MMP-9
  Ki: 3500 ± 200 nM
[1]; MMP-9, values printed as 10^4 koff
  10^4 koff: 9.0 ± 0.6 second
[1]; MMP-9, values printed as 10^–3 kon
  10^–3 kon: 0.26 ± 0.01 M/second
[2]; read-out: Inhibition (Ki column), MMP-1cat, up to 60 μM
  Ki: > 60000 nM
[3]; MMP-3cat, 60 μM inhibitor
  inhibition at 60 µM: 8% Inhibition at 60 μM
[4]
  Metabolic stability relative to SB-3CT: > 50 fold
[5]; MMP-2
  Ki: 180 ± 30 nM
[5]; MMP-2, slow-binding onset rate constant, values printed as 10^–3 kon
  10^–3 kon: 3.3 ± 0.1 M/second
[5]; MMP-2, values printed as 10^4 koff
  10^4 koff: 5.9 ± 1.0 second
[6]; read-out: Inhibition (Ki column), MMP-7, up to 60 μM
  Ki: > 60000 nM
[7]; MMP-14cat
  Ki: 740 ± 170 nM
[7]; MMP-14cat, values printed as 10^4 koff
  10^4 koff: 8.9 ± 2.1 second
[7]; MMP-14cat, values printed as 10^–3 kon
  10^–3 kon: 1.2 ± 0.1 M/second

## C[C@H]([C@H]1CS1)S(=O)(=O)c1ccc(Oc2ccccc2)cc1 [Compound 5c, (2R)-2-(1R-(4-Phenoxyphenylsulfonyl)ethyl)thiirane]
[5]
  Ki: 4100 ± 100 nM
